Our source for the IC50, DC50 and Dmax values is patent US20260335453A1, “ISOINDOLINONE-GLUTARIMIDE ANTIBODY CONJUGATES, AND USES THEREOF” (FIREFLY BIO, INC., priority 2023, published 2026).

Where only a bound is given, the exact number is not on record here.

Experiment [1] has as its system CAL51 cells. In words: Cell proliferation (Cell Titer Glow), CAL51. Particulars: Homo sapiens, CAL-51; IG compounds, cell killing, 72 h. The class given is cell-based. The protocol: (§1) Exemplary isoindolinone-glutarimide (IG) compounds of Table 1a, 1b and 1c were prepared and characterized according to the Examples herein. Certain exemplary IG compounds of(Table 1a were tested for their effects in inhibiting cellular proliferation, including CAL1 WSU-DLCL2, NCI-N87 and SKBR3. CAL51 is a human breast adenocarcinoma cell line with triple-negative status for expression of estrogen, progesterone and HER2 receptors. WSU-DLCL2 is a human B-Cell non-Hodgkin lymphoma cell line that expresses high levels of CD22. NCI-N87 is a human epithelial cell line established from a gastric carcinoma; SKBR3 is a human epithelial cell line established from a breast adenocarcinoma; both NCI-N87 and SKBR3 cell lines express high levels of HER2 receptor. […]
(§2) One day prior to treatment with compounds or IGAC, cells were plated in white 96-well plates (SKBR: 3000 cells/well; CAL-51: 4000 cells/well). Compounds or ADCs were added in a serial-dilution manner reaching the indicated concentrations. Plates were incubated at 37 degrees for 96h (ADCs) or 72h (compounds) whereafter a 1:10 dilution of Cell Titer Glow was used to measure relative cell numbers after 10 min of incubation at room temperature.
In general terms: In ATP-based viability assays light output follows the ATP content of the culture.

Experiment [2] concerns CAL51 cells. In words: Degradation assay evaluated by immunofluorescence staining, CAL51. It counts as cell-based, human. The note with it: Homo sapiens, CAL-51, CAL51, 6 h. The procedure: (§3) One day prior to treatment with compounds, black 96 well plates were coated with fibronectin (0.2 μg/ml in PBS) for 45 min at room temperature and subsequently washed with PBS. CAL-51 or SKBR3 cells were seeded at 30K cells/well (1001) and incubated overnight at 37° C. whereafter compounds were added reaching indicated concentrations. 6 h after treatment the medium was removed, cells were washed with PBS and fixed with 10% formalin for 20 mins at room temperature. Following two PBS washes (150 μl), cells were permeabilized in 0.1% Triton X-100 in PBS for 8 mins at room temperature and subsequently washed again twice with PBS. Cells were blocked thereafter with 1% BSA in PBS for 45 mins. Primary antibody was diluted in blocking buffer and incubated with the cells overnight at 4° C. After three washes with PBS, cells were incubated with secondary antibody for 1 h at RT, washed and subsequently images were taken on an Operetta High-Content Imager.
(§4) For the determination of the DC50, a custom algorithm implemented in the PerkinElmer image analysis software Harmony-Acapella® was used.

The subject of experiment [3] is SKBR3 cells. In words: Cell proliferation (Cell Titer Glow), SKBR3. The class given is cell-based. The note with it: Homo sapiens, SK-BR-3; IG compounds, cell killing, 72 h. The procedure:
as §1, §2

For experiment [4], the system named is SKBR3 cells. Kind of experiment: Degradation assay evaluated by immunofluorescence staining, SKBR3. The note with it: Homo sapiens, SK-BR-3, SKBR3, 6 h. It counts as cell-based. The procedure: as §3, §4
The subject of another experiment is WSU-DLCL2 cells. Kind of experiment: Cell proliferation (Cell Titer Glow), WSU-DLCL2. The class given is cell-based. The note with it: Homo sapiens, WSUDLCL2; IG compounds, cell killing, 72 h. The procedure: (§5) Exemplary isoindolinone-glutarimide (IG) compounds of Table 1a, 1b and 1c were prepared and characterized according to the Examples herein. Certain exemplary IG compounds of(Table 1a were tested for their effects in inhibiting cellular proliferation, including CAL1 WSU-DLCL2, NCI-N87 and SKBR3. CAL51 is a human breast adenocarcinoma cell line with triple-negative status for expression of estrogen, progesterone and HER2 receptors. WSU-DLCL2 is a human B-Cell non-Hodgkin lymphoma cell line that expresses high levels of CD22. NCI-N87 is a human epithelial cell line established from a gastric carcinoma; SKBR3 is a human epithelial cell line established from a breast adenocarcinoma; both NCI-N87 and SKBR3 cell lines express high levels of HER2 receptor.
(§6) Exemplary embodiments of the isoindolinone-glutarimide antibody conjugates (IGAC) of Formula I are compiled in Table 3. Assessment of IGAC biological activity and other properties may be conducted according to the methods of Example 102. In some instances, the Cell proliferation dose response IC50 value is an average of repetitive assays. Certain exemplary IGAC were tested for their effects in inhibiting cellular proliferation, including CAL51; WSU-DLCL2, NCI-N87 and SKBR3 cell lines. CAL51 is a human breast adenocarcinoma cell line with triple-negative status for expression of estrogen, progesterone and HER2 receptors. WSU-DLCL2 is a human B-Cell non-Hodgkin lymphoma cell line that expresses high levels of CD22. NCI-N87 is a human epithelial cell line established from a gastric carcinoma; SKBR3 is a human epithelial cell line established from a breast adenocarcinoma; both NCI-N87 and SKBR3 cell lines express high levels of HER2 receptor.
On the day of treatment, 10,000 suspension cells/well were plated in white 96-well plates. Compounds or ADCs were added in a serial-dilution manner reaching the indicated concentrations. Plates were incubated at 37 degrees for 72 h whereafter a 1:10 dilution of Cell Titer Glow was used to measure relative cell numbers after 10 min of incubation at room temperature.

The subject of the next experiment is NCI-N87 cells. Kind of experiment: Cell proliferation (Cell Titer Glow), NCI-N87. The class given is cell-based. The note with it: Homo sapiens, IG compounds, cell killing, 72 h. The protocol: as §5, §6
One day prior to treatment with compounds or IGAC, cells were plated in white 96-well plates (SKBR: 3000 cells/well; CAL-51: 4000 cells/well). Compounds or ADCs were added in a serial-dilution manner reaching the indicated concentrations. […]

The IC50 is the concentration needed to halve the response being measured. Usually DC50 stands for the midpoint of the concentration-degradation curve. Higher therefore signals a less potent degrader. For orientation: Dmax means the greatest extent of degradation seen. Turning to `Cc1ccc(NC(=O)NCc2ccc3c(c2)CN(C2CCC(=O)NC2=O)C3=O)cc1Cl` (centres unmarked) [IG-1, 1-(3-chloro-4-methyl-phenyl)-3-[[2-(2,6-dioxo-3-piperidyl)-1-oxo-isoindolin-5-yl]methyl]urea], the IC50 was found to be 10.8 nM in the experiment on CAL51 cells [1], 1.77 nM in the experiment on SKBR3 cells [3], 1.23 nM in the experiment on WSU-DLCL2 cells and 1.48 nM in the experiment on NCI-N87 cells. In addition, the values for the DC50 with CAL51 cells [2] and in the experiment with SKBR3 cells [4] were 3.24 ± 2.18 nM and under 0.7 nM, respectively. The Dmax amounted to 101 ± 4.45% with CAL51 cells [2] and 95.5 ± 4.9% in the experiment on SKBR3 cells [4].
On to `O=C1CCC(N2Cc3c(ccc(CNC(=O)Nc4cccc(C5(C(F)(F)F)CC5)c4)c3O)C2=O)C(=O)N1` (centres unmarked) [IG-42, 1-((2-(2,6-dioxopiperidin-3-yl)-4-hydroxy-1-oxoisoindolin-5-yl)methyl)-3-(3-(1-(trifluoromethyl)cyclopropyl)phenyl)urea], for which the IC50 was 25 nM in the experiment with CAL51 cells [1], 2.73 nM in the experiment on SKBR3 cells [3], 1.43 nM in the experiment on WSU-DLCL2 cells and 2.57 nM with NCI-N87 cells. The values for the DC50 in the experiment with CAL51 cells [2] and in the experiment on SKBR3 cells [4] were under 5.41 nM and 2 nM, respectively. The Dmax in the experiment with CAL51 cells [2] was 96.1 ± 5.89%; in the experiment on SKBR3 cells [4], 88.6%.
As to `Cc1ccc(NC(=O)NCc2ccc3c(c2O)CN(C2CCC(=O)NC2=O)C3=O)cc1C(C)C` (centres unmarked) [IG-50], the DC50 was 6.21 nM in the experiment on CAL51 cells [2] and under 0.645 nM in the experiment with SKBR3 cells [4]. For the same compound, the Dmax is 105% in the experiment on CAL51 cells [2] and 99.6 ± 0.614% in the experiment with SKBR3 cells [4]. Further, the IC50 in the experiment with SKBR3 cells [3] worked out at 1.38 nM; with WSU-DLCL2 cells, 0.75 nM; in the experiment with NCI-N87 cells it was 1.63 nM.
